Patent US10653693B2, “PRMT5 inhibitors and uses thereof” (Epizyme, Inc., priority 2014, dated 2020)
Read-outs that look alike come from different tables or passages of the source.

How the values were obtained:
MiaPaca-2 cells = assay: 2D-proliferation assay; assay type: cell-based; conditions: Homo sapiens
Method: (§1) Calculation of growth inhibitory concentrations (g IC50) at Days 4, 6 and 13 treated with Formula D. 2D-proliferation assays were also performed on pancreatic cell lines treated with Formula D. Treatment of both Miapaca-2 and Panc-1 cells with Formula D results in a decrease in cell proliferation, as shown in FIG. 19.

Panc-1 cells = assay: 2D-proliferation assay; assay type: cell-based; conditions: Homo sapiens
Method: as §1

Miapaca-2 = assay: Foci formation and cellular morphology; assay type: cell-based
Method: (§2) FIG. 18 illustrates the effect of foci formation and cellular morphology in pancreatic cancer cell lines (Miapaca-2, Panc-1). The effects of treatment with Formula D on pancreatic cancer cell morphology was also tested.

Panc-1 = assay: Foci formation and cellular morphology; assay type: cell-based
Method: as §2

Z-138 = assay: Long-term proliferation (LTP) assay; assay type: cell-based; conditions: Homo sapiens, Table 3, read-out: LTP IC50
Method: FIG. 4 illustrates a representative sample of a long-term proliferation assay performed in the mantle cell lymphoma cell line Z-138. Assays were performed in technical triplicates, reading cell viability over 14 days. Growth curves (top panel) were calculated in Excel. IC50 (bottom panel) and IC90 (not shown) values were calculated in GraphPad Prism using a non-linear regression analysis, fixing the top and bottom of the curves to 100 and 0%, respectively. The IC50 values in the Table are indicated in microM. [table]

Granta-519 = assay: Long-term proliferation (LTP) assay; assay type: cell-based; conditions: Homo sapiens, Table 3, read-out: LTP IC50
Jeko-1 = assay: Long-term proliferation (LTP) assay; assay type: cell-based; conditions: Homo sapiens, Table 3, read-out: LTP IC50
Maver-1 = assay: Long-term proliferation (LTP) assay; assay type: cell-based; conditions: Homo sapiens, Maver1, Table 3, read-out: LTP IC50
Mino = assay: Long-term proliferation (LTP) assay; assay type: cell-based; conditions: Homo sapiens, Table 3, read-out: LTP IC50
[1] = test system: sDMA methylation in Granta-519 cells; assay: sDMA western blot, 10 kDa band to total SmD3; assay type: cell-based; conditions: Homo sapiens, Table 3, read-out: sDMA Western IC50
Method: (§3) The measurement of the 10 kDa band was used to calculate the methylation IC50 values. […] Concentration-dependent decreases in the 10 kDa band were observed on day 4 in all cell lines tested with representative western blots shown for Z-138 and Maver-1 cell lines (FIG. 1). Levels of the 10 kDa band from the western blots were quantified by densitometry and ratios of 10 kDa band (postulated to be SmD3me2s) to total SmD3 were calculated to determine the IC50s (Table 2, n=1 for all samples).

[2] = test system: sDMA methylation in Jeko-1 cells; assay: sDMA western blot, 10 kDa band to total SmD3; assay type: cell-based; conditions: Homo sapiens, Table 3, read-out: sDMA Western IC50
Method: as §3

[3] = test system: sDMA methylation in Maver-1 cells; assay: sDMA western blot, 10 kDa band to total SmD3; assay type: cell-based; conditions: Homo sapiens, Maver1, Table 3, read-out: sDMA Western IC50
Method: as §3

[4] = test system: sDMA methylation in Mino cells; assay: sDMA western blot, 10 kDa band to total SmD3; assay type: cell-based; conditions: Homo sapiens, Table 3, read-out: sDMA Western IC50
Method: as §3

[5] = test system: sDMA methylation in Z-138 cells; assay: sDMA western blot, 10 kDa band to total SmD3; assay type: cell-based; conditions: Homo sapiens, Table 3, read-out: sDMA Western IC50
Method: as §3

Maver-1 cells = assay: Annexin-V staining (apoptosis); assay type: cell-based, Human; conditions: after 4 days of treatment
Method: (§4) The mechanism of cell killing was evaluated in the MCL cell lines, Z-138 and Mayer-1. Cells were treated at various time points with 2 nM, 20 nM, and 200 nM of Formula B. Apoptosis was assessed by measuring the percentage of Annexin-V positive cells and the assay was performed in triplicate.

Z-138 cells = assay: Annexin-V staining (apoptosis); assay type: cell-based, Human; conditions: 200 nM
Method: as §4

Z-138 xenograft model = assay: 21 day mantle cell lymphoma xenograft study: TGI and tumor methyl mark; assay type: in vivo; conditions: Z-138 xenograft; all doses tested; day 21
Method: Data presented in this example were determined after analysis of 21 day samples of mantle cell lymphoma tumors. Cmin PK samples were taken prior to the last dose on day 21. Tumors were excised, weighed and processed for methyl mark. Methyl mark reduction was measured in tumor samples and is shown as percent of vehicle control (POC). […] Tumor growth inhibition was determined using tumor volume reduction at day 21 expressed as a percent of POC. In vivo inhibition curves were also generated and IC50 values determined. Plasma levels from each group are averaged from 5 animals. […] The average body weight loss (BWL) in all groups was <6%. All doses tested show >50% TGI. […] The average BWL in all groups was <4%. The average BWL in all groups was <8%, except in the 100 mg/kg does group were 4 animals exceeded BWL of 15%.

Maver-1 xenograft model = assay: as above; assay type: in vivo; conditions: all doses tested, day 21
Method: (§5) Data presented in this example were determined after analysis of 21 day samples of mantle cell lymphoma tumors. Cmin PK samples were taken prior to the last dose on day 21. Tumors were excised, weighed and processed for methyl mark. Methyl mark reduction was measured in tumor samples and is shown as percent of vehicle control (POC). Both SYM11 and sDMA Elisa were used to measure methyl mark and the data shown is averaged from 10 animals. Tumor growth inhibition was determined using tumor volume reduction at day 21 expressed as a percent of POC. In vivo inhibition curves were also generated and IC50 values determined. Plasma levels from each group are averaged from 5 animals. […] The average body weight loss (BWL) in all groups was <6%. All doses tested show >50% TGI. […] The average BWL in all groups was <4%. The average BWL in all groups was <8%, except in the 100 mg/kg does group were 4 animals exceeded BWL of 15%.

[6] = Body weight loss in Z-138 xenograft study; assay type: in vivo
Method: as §5

For O=C(COc1cccc2cccnc12)NC[C@@H](O)CN1CCc2ccccc2C1 [Formula D], the IC50 (MiaPaca-2 cells; MIA PaCa-2, 96 h, Day 4, read-out: growth inhibitory concentration (gIC50)) was 349 nM, the IC50 (MiaPaca-2 cells; MIA PaCa-2, 144 h, Day 6, read-out: growth inhibitory concentration (gIC50)) was 269 nM and the IC50 (MiaPaca-2 cells; MIA PaCa-2, 312 h, Day 13, read-out: growth inhibitory concentration (gIC50)) was 929 nM. The IC50 (Panc-1 cells; 96 h, Day 4, read-out: growth inhibitory concentration (gIC50)) was 1990 nM, the IC50 (Panc-1 cells; 144 h, Day 6, read-out: growth inhibitory concentration (gIC50)) was 1240 nM and the IC50 (Panc-1 cells; 312 h, Day 13, read-out: growth inhibitory concentration (gIC50)) was 3900 nM. The “effect on pancreatic cancer cell morphology / growth” value (Miapaca-2) was “inhibition of cancer cell growth” and the “effect on pancreatic cancer cell morphology / growth” value (Panc-1) was “inhibition of cancer cell growth”.

With CC(=O)N1CCC(Nc2cc(C(=O)NC[C@H](O)CN3CCc4ccccc4C3)ncn2)CC1 [Formula A] the IC50 (Z-138) was 5.7 nM, the IC50 (Granta-519) was 4.7 nM and the IC50 (Jeko-1) was 11.3 nM. The IC50 (Maver-1) was 32 nM, the IC50 (Mino) was 106 nM and the IC50 [1] was 2 nM. The IC50 [2] was 8.7 nM, the IC50 [3] was 0.3 nM and the IC50 [4] was 7 nM. For the same compound, the IC50 [5] was 14 nM, the “cells stained positive for Annexin-V” value (Maver-1 cells) was 8% and the “increase in Annexin-V positive cells” value (Z-138 cells; after 4 days) was 12%. For the same compound, the “increase in Annexin-V positive cells” value (Z-138 cells; after 6 days) was 40%, the “Tumor growth inhibition (TGI)” value (Z-138 xenograft model) was > 50% and the “Tumor growth inhibition (TGI)” value (Maver-1 xenograft model) was > 50%. The “body weight loss (BWL) exceeded by 4 animals” value ([6]; 100 mg/kg dose group) was > 15% and the “average body weight loss (BWL) in all groups” value ([6]; 21 days) was < 8%.
